Results taken from US11713323B2, “Crystalline forms of therapeutic compounds and uses thereof” (Kala Pharmaceuticals, Inc., priority 2013, dated 2023).

Key:
Type in all cases: physicochemical
[1] = Stability of MPP suspensions of crystalline forms on storage (XRPD profile)
Description: To characterize the stability of the resulting crystalline forms of Compound 3, changes in XRPD profiles following long-term storage were determined. An MPP suspension comprising of crystalline Form A was stored at room temperature for 7 weeks, while a second MPP suspension also comprising of crystalline Form A was stored at room temperature for 7 weeks followed by an additional 1.5 weeks of agitation. […] To further test the potential for longer term storage, two additional MPP samples comprising of Form A, which were formulated at pH 5.8 and pH 7.4 by incorporating different buffers in the milling slurry, were stored at room temperature for 8 months and then analyzed by XRPD.
To confirm long-term stability, an MPP suspension of crystalline Form B was stored for 7 weeks at room temperature and then was characterized by XRPD. The results of that analysis are shown in FIG. 5, which provides the XRPD pattern of the original crystalline Form B material in the bottom trace and the XRPD pattern of the material after seven weeks of storage in the top trace.

[2] = Competition between crystalline Forms A and B in mixed nanoparticle suspensions (XRPD); settings: competition with crystalline Form A
Description: A suspension of nanoparticles of crystalline Form A was generated as described via wet milling the amorphous material. A suspension of nanoparticles of Form B was generated via wet milling of neat Form B crystals as described. The two suspensions were mixed in 1:1 ratio and incubated at room temperature. After 11 days, an XRPD analysis was performed, which estimated that the ratio of Forms A and B was unchanged in the mixture (not shown). A fraction of the mixture was then stirred using a magnetic stir bar to provide an increased energy input in order to accelerate the outcome of the competition experiment.

[3] = Crystal form stability during wet-milling (XRPD); settings: 5% in 5% F127/DPBS, wet-milled 2 days
Description: In accordance to Example 3, mucus-penetrating particles comprising of Crystalline Form B was prepared by wet-milling neat Crystalline Form B. A slurry containing 5% neat crystalline From B of Compound 3 and 5% F127 in DPBS (Dulbecco's Phosphate Buffered Saline) was added to an equal bulk volume of 1-mm ceria-stabilized zirconium oxide beads in a glass vial (e.g. 0.5 mL of slurry for 0.5 mL of beads). A magnetic stir bar was used to agitate the beads, stirring at approximately 500 rpm. The sample was milled for 2 days. Nanoparticles which were approximately 200 nm in diameter (z-averaged), as measured by DLS, were generated.

| SMILES | shelf stable as suspensions (XRPD profile of crystalline Form A retained) ([1]; MPP samples formulated at pH 5.8 and pH 7.4, room temperature) | shelf stable in solution (XRPD profile of crystalline Form A retained) ([1]; MPP suspension, room temperature, second sample with additional 1.5 weeks of agitation) | relative stability under the current formulation conditions [2] | physical stability during storage (XRPD pattern) ([1]; MPP suspension stored 7 weeks at room temperature) | crystal form stability during milling (XRPD) [3] |
| --- | --- | --- | --- | --- | --- |
| COc1cc2c(Oc3ccc4[nH]c(C)cc4c3F)ncnc2cc1OCCCN1CCC2(CC1)COC2 [crystalline Form A, 7-(3-(4-(4-fluoro-2-methyl-1H-indol-5-yloxy)-6-methoxyquinazolin-7-yloxy)propyl)-2-oxa-7-azaspiro[3.5] nonane] | at least 8 months | at least 7 weeks | – | – | – |
| COc1cc2c(Oc3ccc4[nH]c(C)cc4c3F)ncnc2cc1OCCCN1CCC2(CC1)COC2 [crystalline Form B, 7-(3-(4-(4-fluoro-2-methyl-1H-indol-5-yloxy)-6-methoxyquinazolin-7-yloxy)propyl)-2-oxa-7-azaspiro[3.5]nonane] | – | – | more stable | physically stable during storage | remained stable during milling |
